14 molecules from patent US9550776B2, “Pyridinylpyrazoloquinoline compounds” (Eisai R&D Management Co., Ltd., priority 2013, dated 2017) can be followed below.

The target of assay [1] is T1, human recombinant PDE9 protein (Homo sapiens, UniProt O76083).
T1 construct: made in house; host or cells: silkworm (pYNG vector, Katakura Industries)
As to the kind of experiment: PDE9 inhibitory activity test ([3H]-cGMP hydrolysis). It counts as biochemical. On the procedure: An hsPDE9A 1cDNA fragment was amplified by being based on a base sequence (Accession No.: AF048837) of the hsPDE9A1 registered on GenBank data base, and by using the following sequences (Hokkaido System Science Co., Ltd.) as a primer and Human hippocampus cDNA library (Clontech Laboratories, Inc.) as a template DNA, and using Pfu50 DNA polymerase (Invitrogen Corp.), and by a polymerase chain reaction (PCR) of the following condition.
The condition of PCR: [96° C., 5 min]×1 cycle, [(96° C., 10 sec), (57° C., 5 sec), (72° C., 2 min)]×30 cycles
The obtained hsPDE9A 1cDNA fragment was incorporated in a TOPO-TA cloning vector (Invitrogen Corp.), and the base sequence was checked; and thereafter, the resultant was transfected in a pcDNA 3.1/myc His-tag vector (Invitrogen Corp.) to thereby make a human PDE9 expression vector for mammal cells. The human PDE9 expression vector for mammal cells was transfected with transient expression to an HEK293 cell by using a LIPOFETAMINE 2000 Reagent (Gibco). It was confirmed by Western blot method that the PDE9A expressed in the HEK293 cell, and then, the human PDE9A 1cDNA fragment was transfected in a pYNG vector (Katakura Industries Co., Ltd.) to thereby make an expression vector for insect cells. A supernatant of homogenized silk worm in which a large amount of PDE9 was expressed was purified by an equilibrated Ni column using a buffer A (20 mmol/L Tris-HCl, pH: 8.0, 1 mmol/L DTT, 10 mmol/L imidazole). After 1 hour of mixing of the supernatant and the Ni column, cleaning was carried out using a buffer B (20 mmol/L Tris-HCl, pH: 8.0, 1 mmol/L DTT), and elution was carried out using a buffer C (20 mmol/L Tris-HCl, pH: 8.0, 1 mmol/L DTT, 100 mmol/L imidazole). An elution fraction was preparatively collected to thereby obtain a PDE9 enzyme solution.
To 100 μL of a buffer D (40 mmol/L Tris-HCl, pH: 7.4, 10 mmol/L MgCl2, 1 mM DTT, 2 μM cGMP) solution containing [^3H]-cGMP (0.5 μCi/mL), 10 μL of a compound solution for evaluation (a solution in which a compound was dissolved in DMSO and diluted so that the DMSO concentration became 5%) and 90 μL of a solution prepared by diluting the PDE9 enzyme solution prepared in the above with a buffer E (40 mmol/L Tris-HCl, pH: 7.4, 10 mmol/L MgCl2, 1 mM DTT, 1 mmol/L EGTA) were added under ice cooling. The resultant mixed solution was incubated at 30° C. for 10 min, and thereafter heated for 2 min in boiled water to stop the enzyme reaction of the PDE9. Then, the resultant was returned to room temperature; 50 μL of 5′-Nucleotidase (Biomol GmbH, 10 units/mL) was added thereto; and the resultant was incubated at 30° C. for 10 min to thereby convert [^3H]-5′-GMP formed in the previous reaction to [^3H]-guanosine. 500 μL of an anion exchange resin (Bio-Rad AGl-X2 resin, mesh size: 200-400, H2O:resin=2:1) was added to the resultant reaction liquid, and allowed to stand for 10 min, and thereafter centrifuged (2,000 rpm, 10 min); and a supernatant in which the [^3H]-guanosine was present was transferred to a LumaPlate (PerkinElmer, Inc.), and the radioactivity was measured by a TopCount NXT microplate scintillation and luminescence counter (PerkinElmer, Inc.).
The inhibition percentage of the evaluation compound was calculated using the following expression, taking the radioactivity of a control containing no evaluation compound to be (A), the radioactivity of a blank containing no enzyme to be (B), and the radioactivity of the evaluation compound to be (C). Inhibition percentage=100−{[(C)−(B)]/[(A)−(B)]}×100(%)
The IC50 value for PDE9 of the evaluation compound was determined from inhibition percentage for various concentrations.

The test system of assay [2] is cerebrospinal fluid cGMP. As to the kind of experiment: Effect on rodent cerebrospinal fluid cGMP. It counts as in vivo. The conditions noted are these: rat (LE), 10 mg/kg p.o., sampling time 2 hr. On the procedure: The test compound was administered to ICR male mice (Charles River Laboratories Japan, Inc.), Sprague-Dawley male rats (SD) (Charles River Laboratories Japan, Inc.) or Long-Evans male rats (LE) (Institute for Animal Reproduction), and the cerebrospinal fluid was then collected under pentobarbital anesthesia and stored at −20° C. cGMP in the cerebrospinal fluid was measured in accordance with the acetylation EIA procedure of cGMP EIA kit (GE Healthcare) or the non-acetylation procedure of cGMP EIA kit (Cayman). The result was an increase (C) in the amount of cGMP of the test compound-administered group (B) relative to the amount of cGMP of the vehicle-administered group (A), and was calculated using the following formula. cGMP increase(C)=[(B)−(A)]/(A)×100(%)

In assay [3] the test system is hippocampal cGMP. As to the kind of experiment: Effect on rodent hippocampal cGMP. It counts as in vivo. The settings on record: rat (LE), 10 mg/kg p.o., sampling time 2 hr. As to the method:
The test compound was administered to Sprague-Dawley male rats (Charles River Laboratories Japan, Inc.) or Long-Evans male rats (Institute for Animal Reproduction) and then the animals were sacrificed with microwave under pentobarbital anesthesia, and the hippocampus was extracted. After measuring the wet weight, the hippocampus was frozen with liquid nitrogen and stored at −80° C. In the measurement of cGMP in the hippocampus, a 0.5 M perchloric acid/1 mM EDTA solution was added at 5% (w/v) based on the wet weight, and the mixture was homogenized. After the homogenization, the homogenate was centrifuged (10000 rpm, 15 min), and the supernatant was collected. The collected supernatant was neutralized with a 2 M potassium bicarbonate solution and centrifuged (13000 rpm, 10 min). The cGMP concentration in the supernatant was measured in accordance with the non-acetylation EIA procedure of cGMP EIA kit (GE Healthcare). The result was an increase (C) in the amount of cGMP of the test compound-administered group (B) relative to the amount of cGMP of the vehicle-administered group (A), and was calculated using the following formula. cGMP increase(C)=[(B)−(A)]/(A)×100(%)

T1 sequence (O76083 whole entry): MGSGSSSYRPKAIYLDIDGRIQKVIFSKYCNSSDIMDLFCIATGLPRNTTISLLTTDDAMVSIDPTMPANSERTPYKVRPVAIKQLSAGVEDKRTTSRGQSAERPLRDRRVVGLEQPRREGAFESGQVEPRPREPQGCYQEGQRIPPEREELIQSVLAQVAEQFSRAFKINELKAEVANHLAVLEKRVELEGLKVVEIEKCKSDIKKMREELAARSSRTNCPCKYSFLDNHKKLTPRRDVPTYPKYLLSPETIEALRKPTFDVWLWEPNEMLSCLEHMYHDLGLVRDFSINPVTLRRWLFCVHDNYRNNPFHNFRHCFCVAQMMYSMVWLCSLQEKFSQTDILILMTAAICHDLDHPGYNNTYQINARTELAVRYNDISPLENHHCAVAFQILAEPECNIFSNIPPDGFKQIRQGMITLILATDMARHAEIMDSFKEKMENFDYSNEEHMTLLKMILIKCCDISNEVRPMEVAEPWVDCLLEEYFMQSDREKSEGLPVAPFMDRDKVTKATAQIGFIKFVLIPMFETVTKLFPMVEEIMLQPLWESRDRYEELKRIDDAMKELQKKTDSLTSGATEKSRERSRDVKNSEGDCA

Usually IC50 stands for the midpoint of a concentration-inhibition curve. In the case of `COc1nc(C)cc(C)c1-c1ccc2c(c1)[nH]c(=O)c1cnn([C@@H]3CCOC[C@@H]3C)c12` (single isomer, unassigned) [Example 2b, (−)-7-(2-Methoxy-4,6-dimethylpyridin-3-yl)-1-((3R*,4R*)-3-methyltetrahydro-2H-pyran-4-yl)-1H-pyrazolo[4,3-c]quinoline-4(5H)-one], the concentration for half-maximal inhibition (IC50) in assay [1] came to 3.7 nM.
Take `COc1nc(C)cc(C)c1-c1ccc2c(c1)[nH]c(=O)c1cnn([C@@H]3CCOC[C@@H]3C)c12` (single isomer, unassigned) [Example 2c, (+)-7-(2-Methoxy-4,6-dimethylpyridin-3-yl)-1-((3R*,4R*)-3-methyltetrahydro-2H-pyran-4-yl)-1H-pyrazolo[4,3-c]quinoline-4(5H)-one]: the IC50 in assay [1] came out at 12.3 nM.
The same measure, in the same setting: in the case of `COc1ncc(C)c(-c2ccc3c(c2)[nH]c(=O)c2cnn([C@H]4CC[C@@H](OC)CC4)c23)c1C` [Example 5a, 7-(2-methoxy-3,5-dimethylpyridin-4-yl)-1-(cis-4-methoxycyclohexyl)-1H-pyrazolo[4,3-c]quinoline-4(5H)-one] it was 9.8 nM.
In the case of `COc1ncc(C)c(-c2ccc3c(c2)[nH]c(=O)c2cnn([C@H]4CC[C@H](OC)CC4)c23)c1C` [Example 5b, 7-(2-methoxy-3,5-dimethylpyridin-4-yl)-1-(trans-4-methoxycyclohexyl)-1H-pyrazolo[4,3-c]quinoline-4(5H)-one], the 50% inhibitory concentration (IC50) in assay [1] was 12.7 nM. Moreover, the “% CSF cGMP increase from vehicle control” value in assay [2] was found to be 167%. The “% hippocampal cGMP increase from vehicle control” value (“% hippocampal cGMP increase” for short) in assay [3] came out at 41%.
Regarding “(+)-7-(2-Methoxy-3,5-dimethylpyridin-4-yl)-1-((3R*,4R*)-3-methyltetrahydro-2H-pyran-4-yl)-1H-pyrazolo[4,3-c]quinoline-4(5H)-one [Example 3b]”, the IC50 in assay [1] came to 25.6 nM.
For the molecule “(+)-7-(2-Methoxy-3,5-dimethylpyridin-4-yl)-1-((3R*,4S*)-3-methyltetrahydro-2H-pyran-4-yl)-1H-pyrazolo[4,3-c]quinoline-4(5H)-one [Example 4b]”, the IC50 in assay [1] worked out at 39.1 nM.
Consider “(+)-7-(2-methoxy-4,6-dimethylpyridin-3-yl)-1-((3R*,4S*)-3-methyltetrahydro-2H-pyran-4-yl)-1H-pyrazolo[4,3-c]quinoline-4(5H)-one [Example 2a]”, for which the IC50 in assay [1] was found to be 11.6 nM.
The same measure, in the same setting: the value for “(+)-7-(6-Methoxy-2,4-dimethylpyridin-3-yl)-1-((3R*,4S*)-3-methyltetrahydro-2H-pyran-4-yl)-1H-pyrazolo[4,3-c]quinoline-4(5H)-one [Example 1c]” was 87.2 nM; that for “(+)-7-(6-methoxy-2,4-dimethylpyridin-3-yl)-1-((3R*,4R*)-3-methyltetrahydro-2H-pyran-4-yl)-1H-pyrazolo[4,3-c]quinoline-4(5H)-one [Example 1a]” was 48 nM; that for “(−)-7-(2-Methoxy-3,5-dimethylpyridin-4-yl)-1-((3R*,4S*)-3-methyltetrahydro-2H-pyran-4-yl)-1H-pyrazolo[4,3-c]quinoline-4(5H)-one [Example 4a]” was 5.8 nM.
In the case of “(−)-7-(2-Methoxy-4,6-dimethylpyridin-3-yl)-1-((3R*,4S*)-3-methyltetrahydro-2H-pyran-4-yl)-1H-pyrazolo[4,3-c]quinoline-4(5H)-one [Example 2d]”, the IC50 in assay [1] is 1.3 nM. In addition, in assay [2], the “% CSF cGMP increase from vehicle control” value turned out to be 183%. Also, the “% hippocampal cGMP increase” value in assay [3] is given as 23%.
As for “(−)-7-(2-methoxy-3,5-dimethylpyridin-4-yl)-1-((3R*,4R*)-3-methyltetrahydro-2H-pyran-4-yl)-1H-pyrazolo[4,3-c]quinoline-4(5H)-one [Example 3a]”, in assay [1], the IC50 was found to be 6.9 nM. Moreover, the “% CSF cGMP increase from vehicle control” value in assay [2] is recorded as 200%. Further, in assay [3], the “% hippocampal cGMP increase” value worked out at 58%.
Turning to “(−)-7-(6-Methoxy-2,4-dimethylpyridin-3-yl)-1-((3R*,4R*)-3-methyltetrahydro-2H-pyran-4-yl)-1H-pyrazolo[4,3-c]quinoline-4(5H)-one [Example 1b]”, the half-inhibitory concentration (IC50) in assay [1] is 13.6 nM. In addition, the “% CSF cGMP increase from vehicle control” value in assay [2] was determined as 147%. Also, the “% hippocampal cGMP increase” value in assay [3] turned out to be 44%.
Take “(−)-7-(6-Methoxy-2,4-dimethylpyridin-3-yl)-1-((3R*,4S*)-3-methyltetrahydro-2H-pyran-4-yl)-1H-pyrazolo[4,3-c]quinoline-4(5H)-one [Example 1d]”: the IC50 in assay [1] stood at 6.9 nM. Besides, in assay [2], the “% CSF cGMP increase from vehicle control” value was determined as 206%. Further, the “% hippocampal cGMP increase” value in assay [3] came out at 61%.
